System: GADD153 mRNA
Assay: GADD153 mRNA level in 2008 ovarian carcinoma cells after paclitaxel
Format: cell-based
Conditions: concentration 10 times the IC50, 24 hours

SMILES: CC(=O)O[C@H]1C(=O)[C@@]2(C)[C@H]([C@H](OC(=O)c3ccccc3)[C@]3(O)C[C@H](OC(=O)[C@H](O)[C@@H](NC(=O)c4ccccc4)c4ccccc4)C(C)=C1C3(C)C)[C@]1(OC(C)=O)CO[C@@H]1C[C@@H]2O [paclitaxel]
- increase in GADD153 mRNA level: 5.7±2.5 fold

— patent US6447997B1, “Gene coding for GADD153 as a clinical diagnostic and prognostic in cancer therapy” (Research Development Foundation, priority 1997, dated 2002)
